Our source for the IC50 values is patent US12521395B2, “Gem-disubstituted heterocyclic compounds and their use as IDH inhibitors” (NERVIANO MEDICAL SCIENCES S.R.L., priority 2019, dated 2026).

For the experiment, the target named is IDH1^R132C (Homo sapiens, UniProt O75874, R132C). Nature of the experiment: NADPH depletion assay (diaphorase/resazurin), IDH1 R132C. The format is biochemical. As to conditions: IDH1^R132C 2 nM, alpha-ketoglutarate 0.14 mM; read-out: IDH1^R132C IC50. How it is done: IDH mutated enzyme activity converting alpha-ketoglutarate to 2-hydroxyglutaric acid is measured using a NADPH depletion assay. In the assay the remaining cofactor is measured at the end of the reaction with the addition of a catalytic excess of diaphorase and resazurin, to generate a fluorescent signal in proportion to the amount of NADPH remaining. IDH1 WT enzyme as well as mutated isoforms IDH1^R132H, IDH1^R132C, and IDH2^R172K enzymes are commercially available proteins (see e.g. Sino Biological, Abcam, Active Motif or Creative BioMart).
IDH1^R132C, sequence (O75874 whole entry R132C, canonical isoform): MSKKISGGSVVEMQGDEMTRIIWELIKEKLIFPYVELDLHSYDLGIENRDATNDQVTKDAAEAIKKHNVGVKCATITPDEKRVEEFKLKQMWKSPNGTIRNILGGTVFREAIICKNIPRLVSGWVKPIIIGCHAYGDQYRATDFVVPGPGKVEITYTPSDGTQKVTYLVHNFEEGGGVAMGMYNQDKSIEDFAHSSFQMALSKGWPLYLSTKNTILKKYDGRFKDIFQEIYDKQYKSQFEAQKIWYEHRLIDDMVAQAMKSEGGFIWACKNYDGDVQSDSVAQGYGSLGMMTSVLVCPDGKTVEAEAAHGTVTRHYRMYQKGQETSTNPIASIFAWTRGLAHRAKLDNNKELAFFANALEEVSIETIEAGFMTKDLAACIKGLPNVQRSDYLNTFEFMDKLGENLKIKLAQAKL
IDH1^R132H homodimer enzyme are diluted to 8 nM, in 10 μL of Assay Buffer (150 mM NaCl, 50 mM Tris-HCl pH 7.6, 10 mM MgCl2, 0.001% Triton X-100, 4 mM β-mercaptoethanol); 0.2 μL of test compound, previously serially diluted 1 to 3, >10 experimental points from 1 mM in DMSO, is added and the mixture is incubated for 15 minutes at room temperature. The reaction is started with the addition of 10 μL of Substrate Mix (12 μM NADPH, 3.4 mM alpha-ketoglutarate in Assay Buffer) and the mixture is incubated for 60 minutes at room temperature. The reaction is terminated with the addition of 5 μl of Detection Buffer (100 μg/mL diaphorase, 30 μM resazurin, in IX Assay Buffer), and is incubated for 15 minutes before reading on a ViewLux as platereader at Ex544/Em590.
Compounds are assayed for their activity against IDH1^R132C following the same assay as above with the following modifications: IDH1^R132C and alpha-ketoglutarate final concentrations in the Assay Buffer is 2 nM and 0.14 mM, respectively.
On the technique in general: Resazurin is reduced to fluorescent resorufin, in cell work by metabolically active cells.
As usually defined, the IC50 is the concentration needed to halve the response being measured. Turning to `C=CC(=O)N1CCN(C(C)(CC)c2ccc([C@H](C)Nc3ncc4ccc(=O)n(C(C)C)c4n3)cc2)CC1` (stereo partly drawn) [cpd 46, 2-{[(1S)-1-{4-[2-(4-acryloylpiperazin-1-yl)butan-2-yl]phenyl}ethyl]amino}-8-(propan-2-yl)pyrido[2,3-d]pyrimidin-7(8H)-one], the concentration for half-maximal inhibition (IC50) stood at 13 nM.

As for `C=CC(=O)N1CC(N(C(C)=O)C2(c3ccc([C@H](C)Nc4cc5c(ccc(=O)n5C(C)C)cn4)cc3)CCC(F)(F)CC2)C1` [cpd 62, N-(1-acryloylazetidin-3-yl)-N-(4,4-difluoro-1-{4-[(1S)-1-{[2-oxo-1-(propan-2-yl)-1,2-dihydro-1,6-naphthyridin-7-yl]amino}ethyl]phenyl}cyclohexyl)acetamide], the IC50 was determined as 2 nM. Next, `CCN1CCN(C2(c3ccc([C@H](C)Nc4ncc5c(n4)N(CC)C(=O)OC5)cc3)CCOCC2)CC1` [cpd 45, 7-{[(1S)-1-{4-[4-(4-ethylpiperazin-1-yl)tetrahydro-2H-pyran-4-yl]phenyl}ethyl]amino}-1-ethyl-1,4-dihydro-2H-pyrimido[4,5-d][1,3]oxazin-2-one]: 1060 nM. Next, `C=CC(=O)N[C@H](C)C(=O)NC1(c2ccc([C@H](C)Nc3ncc4ccc(=O)n(C(C)C)c4n3)cc2)CCC(F)(F)CC1` [cpd 57, N2-acryloyl-N-(4,4-difluoro-1-{4-[(1S)-1-{[7-oxo-8-(propan-2-yl)-7,8-dihydropyrido[2,3-d]pyrimidin-2-yl]amino}ethyl]phenyl}cyclohexyl)-D-alaninamide]: 533 nM; `C=CC(=O)N1CCN(C2(c3ccc([C@H](C)Nc4nc(C)c5ccc(=O)n(C(C)C)c5n4)cc3)CCOCC2)CC1` [cpd 13, 2-{[(1S)-1-{4-[4-(4-acryloylpiperazin-1-yl)tetrahydro-2H-pyran-4-yl]phenyl}ethyl]amino}-4-methyl-8-(propan-2-yl) pyrido[2,3-d]pyrimidin-7(8H)-one]: 53.8 nM; `C=CC(=O)N1CCN(C2(c3ccc([C@@H](C)Nc4cc5c(ccc(=O)n5C(C)C)cn4)cc3)CCC(F)(F)CC2)CC1` [cpd 63, 7-{[(1R)-1-{4-[1-(4-acryloylpiperazin-1-yl)-4,4-difluorocyclohexyl]phenyl}ethyl]amino}-1-(propan-2-yl)-1,6-naphthyridin-2(1H)-one]: 55 nM. Next, `C=CC(=O)NCCN(C(=O)C(F)(F)F)C1(c2ccc([C@H](C)Nc3ncc4ccc(=O)n(C(C)C)c4n3)cc2)CCOCC1` [cpd 66, N-{2-[(4-{4-[(1S)-1-{[7-oxo-8-(propan-2-yl)-7,8-dihydropyrido[2,3-d]pyrimidin-2-yl]amino}ethyl]phenyl}tetrahydro-2H-pyran-4-yl)(trifluoroacetyl)amino]ethyl}prop-2-enamide]: 75 nM; `C=C(C)C(=O)N1CCN(C2(c3ccc([C@H](C)Nc4ncc5ccc(=O)n(C(C)C)c5n4)cc3)CCOCC2)CC1` [cpd 21, 2-{[(1S)-1-(4-{4-[4-(2-methylacryloyl)piperazin-1-yl]tetrahydro-2H-pyran-4-yl}phenyl)ethyl]amino}-8-(propan-2-yl) pyrido[2,3-d]pyrimidin-7(8H)-one]: 904 nM; `C=CC(=O)N[C@@H](C)C(=O)NC1(c2ccc([C@H](C)Nc3ncc4ccc(=O)n(C(C)C)c4n3)cc2)CCC(F)(F)CC1` [cpd 58, N2-acryloyl-N-(4,4-difluoro-1-{4-[(1S)-1-{[7-oxo-8-(propan-2-yl)-7,8-dihydropyrido[2,3-d]pyrimidin-2-yl]amino}ethyl]phenyl}cyclohexyl)-L-alaninamide]: 352 nM. For `C=CC(=O)NCC(=O)NC1(c2ccc([C@H](C)Nc3ncc4ccc(=O)n(C(C)C)c4n3)cc2)CCC(F)(F)CC1` [cpd 56, N-{2-[(4,4-difluoro-1-{4-[(1S)-1-{[7-oxo-8-(propan-2-yl)-7,8-dihydropyrido[2,3-d]pyrimidin-2-yl]amino}ethyl]phenyl}cyclohexyl)amino]-2-oxoethyl}prop-2-enamide], the IC50 is 321 nM. Consider `C=CC(=O)N1CCN(C2(c3ccc([C@H](C)Nc4ncc5ccc(=O)n(C(C)C)c5n4)nc3)CCOCC2)CC1` [cpd 27, 2-{[(1S)-1-{5-[4-(4-acryloylpiperazin-1-yl)tetrahydro-2H-pyran-4-yl]pyridin-2-yl}ethyl]amino}-8-(propan-2-yl)pyrido[2,3-d]pyrimidin-7(8H)-one], for which the IC50 was found to be 98 nM.

Consider `C=CC(=O)N1CC(N(C)C2(c3ccc([C@H](C)Nc4cc5c(ccc(=O)n5C(C)C)cn4)cc3)CCC(F)(F)CC2)C1` [cpd 61, 7-{[(1S)-1-(4-{1-[(1-acryloylazetidin-3-yl)(methyl)amino]-4,4-difluorocyclohexyl}phenyl)ethyl]amino}-1-(propan-2-yl)-1,6-naphthyridin-2(1H)-one], for which the IC50 turned out to be 6 nM. Consider `[2H]C([2H])([2H])C([2H])(n1c(=O)ccc2cnc(N[C@@H](C)c3ccc(C4(N5CCN(C(=O)C=C)CC5)CCOCC4)cc3)nc21)C([2H])([2H])[2H]` [cpd 55, 2-{[(1S)-1-{4-[4-(4-acryloylpiperazin-1-yl)tetrahydro-2H-pyran-4-yl]phenyl}ethyl]amino}-8-[(^2H7)propan-2-yl]pyrido[2,3-d]pyrimidin-7(8H)-one], for which the IC50 came to 11 nM. Next, `CC#CC(=O)N1CCN(C2(c3ccc([C@H](C)Nc4ncc5ccc(=O)n(C(C)C)c5n4)cc3)CCOCC2)CC1` [cpd 5, 2-{[(1S)-1-(4-{4-[4-(but-2-ynoyl)piperazin-1-yl]tetrahydro-2H-pyran-4-yl}phenyl)ethyl]amino}-8-(propan-2-yl)pyrido[2,3-d]pyrimidin-7(8H)-one]: 1470 nM; `CCC(=O)N1CCN(C2(c3ccc([C@H](C)Nc4cc5c(ccc(=O)n5C(C)C)cn4)cc3)CCC(F)(F)CC2)CC1` [cpd 67, 7-{[(1S)-1-{4-[4,4-difluoro-1-(4-propanoylpiperazin-1-yl)cyclohexyl]phenyl}ethyl]amino}-1-(propan-2-yl)-1,6-naphthyridin-2(1H)-one]: 32 nM. For `C=CC(=O)NCCNC1(c2ccc([C@H](C)Nc3ncc4ccc(=O)n(C(C)C)c4n3)cc2)CCOCC1` [cpd 59, N-{2-[(4-{4-[(1S)-1-{[7-oxo-8-(propan-2-yl)-7,8-dihydropyrido[2,3-d]pyrimidin-2-yl]amino}ethyl]phenyl}tetrahydro-2H-pyran-4-yl)amino]ethyl}prop-2-enamide], the IC50 was 151 nM. In the case of `C=CC(=O)N1CCN(C2(c3ccc([C@H](C)Nc4nc(NC)c5ccc(=O)n(C(C)C)c5n4)cc3)CCOCC2)CC1` [cpd 37, 2-{[(1S)-1-{4-[4-(4-acryloylpiperazin-1-yl)tetrahydro-2H-pyran-4-yl]phenyl}ethyl]amino}-4-(methylamino)-8-(propan-2-yl)pyrido[2,3-d]pyrimidin-7(8H)-one] it was 991 nM; in that of `C=C(F)C(=O)N1CCN(C2(c3ccc([C@H](C)Nc4ncc5ccc(=O)n(C(C)C)c5n4)cc3)CCOCC2)CC1` [cpd 54, 2-{[(1S)-1-(4-{4-[4-(2-fluoroacryloyl)piperazin-1-yl]tetrahydro-2H-pyran-4-yl}phenyl)ethyl]amino}-8-(propan-2-yl) pyrido[2,3-d]pyrimidin-7(8H)-one], 928 nM; in that of `C=CC(=O)N1CCN(C2(c3ccc([C@H](C)Nc4ncc5ccc(=O)n(C(C)C)c5n4)cc3)CCN(C)CC2)CC1` [cpd 32, 2-{[(1S)-1-{4-[4-(4-acryloylpiperazin-1-yl)-1-methylpiperidin-4-yl]phenyl}ethyl]amino}-8-(propan-2-yl)pyrido[2,3-d]pyrimidin-7(8H)-one], 64 nM. Next, `C=CC(=O)N1CCN(C2(c3ccc([C@H](C)Nc4nc(N(C)C)c5ccc(=O)n(C(C)C)c5n4)cc3)CCOCC2)CC1` [cpd 36, 2-{[(1S)-1-{4-[4-(4-acryloylpiperazin-1-yl)tetrahydro-2H-pyran-4-yl]phenyl}ethyl]amino}-4-(dimethylamino)-8-(propan-2-yl)pyrido[2,3-d]pyrimidin-7(8H)-one]: 988 nM; `CC(C)n1c(=O)ccc2cnc(N[C@@H](C)c3ccc(C4(N5CCN(C#N)CC5)CCOCC4)cc3)nc21` [cpd 65, 4-(4-{4-[(1S)-1-{[7-oxo-8-(propan-2-yl)-7,8-dihydropyrido[2,3-d]pyrimidin-2-yl]amino}ethyl]phenyl}tetrahydro-2H-pyran-4-yl)piperazine-1-carbonitrile]: 305 nM; `C=CC(=O)N1CCN(C2(c3ccc([C@H](C)Nc4ncc5ccc(=O)n(C(CC)CC)c5n4)cc3)CCOCC2)CC1` [cpd 35, 2-{[(1S)-1-{4-[4-(4-acryloylpiperazin-1-yl)tetrahydro-2H-pyran-4-yl]phenyl}ethyl]amino}-8-(pentan-3-yl)pyrido[2,3-d]pyrimidin-7(8H)-one]: 4 nM. Turning to `C=CC(=O)N1CCN(C2(c3ccc([C@H](C)Nc4ncc5c(C)cc(=O)n(C(C)C)c5n4)cc3)CCOCC2)CC1` [cpd 18, 2-{[(1S)-1-{4-[4-(4-acryloylpiperazin-1-yl)tetrahydro-2H-pyran-4-yl]phenyl}ethyl]amino}-5-methyl-8-(propan-2-yl) pyrido[2,3-d]pyrimidin-7(8H)-one], the IC50 is 24 nM.
